# Where two headings read alike, the source gives them in different places.
# Assay: Plasma pharmacokinetics (LC-MS/MS)
# Format: in vivo, human
# Conditions: human, plasma, oral; for Tmax: read-out: Tmax, Median (Min, max)
# Method: In the dose escalation part of the study, PK samples were collected at various pre- and post-dose time points on C1D1, D2, D3, D15 and D16. Drug concentrations were assessed using a validated liquid chromatography-tandem mass spectrometry assay.
structure (smiles),measurement,setting,value
CC1(N)CCN(c2cccnc2NC(=O)c2nc(-c3ncccc3C(F)(F)F)cnc2N)CC1 [LXS196],AUC(0-t),"300 mg, C1D1, 300 mg BID, n=17, read-out: AUC0-t, Geo-mean",18700 ng·h/mL
same,AUC(0-t),"300 mg, C1D1, 300 mg BID, n=17, read-out: AUC0-t, Mean (SD)",20500 ng·h/mL
same,AUC(0-t),"300 mg, C1D1, 300 mg BID, n=17, read-out: AUC0-t, Median (Min, max)",17000 ng·h/mL
same,Cmax,"300 mg, C1D1, 300 mg BID, n=17, read-out: Cmax, Geo-mean",3850 ng/mL
same,Cmax,"300 mg, C1D1, 300 mg BID, n=17, read-out: Cmax, Mean (SD)",4100 ng/mL
same,Cmax,"300 mg, C1D1, 300 mg BID, n=17, read-out: Cmax, Median (Min, max)",4210 ng/mL
same,Tmax,"300 mg, C1D1, 300 mg BID, n=17",1 h
same,AUC(0-t),"300 mg, C1D1, 300 mg QD, n=15, read-out: AUC0-t, Geo-mean",34000 ng·h/mL
same,AUC(0-t),"300 mg, C1D1, 300 mg QD, n=15, read-out: AUC0-t, Mean (SD)",40200 ng·h/mL
same,AUC(0-t),"300 mg, C1D1, 300 mg QD, n=15, read-out: AUC0-t, Median (Min, max)",34400 ng·h/mL
same,AUC(0-inf),"300 mg, C1D1, 300 mg QD, n=15, read-out: AUCinf, Geo-mean",42100 ng·h/mL
same,AUC(0-inf),"300 mg, C1D1, 300 mg QD, n=15, read-out: AUCinf, Mean (SD)",51300 ng·h/mL
same,AUC(0-inf),"300 mg, C1D1, 300 mg QD, n=15, read-out: AUCinf, Median (Min, max)",43100 ng·h/mL
same,Cmax,"300 mg, C1D1, 300 mg QD, n=15, read-out: Cmax, Geo-mean",4940 ng/mL
same,Cmax,"300 mg, C1D1, 300 mg QD, n=15, read-out: Cmax, Mean (SD)",5580 ng/mL
same,Cmax,"300 mg, C1D1, 300 mg QD, n=15, read-out: Cmax, Median (Min, max)",5370 ng/mL
same,half-life,"300 mg, C1D1, 300 mg QD, n=15, read-out: T1/2, Geo-mean (converted)",10.7 h
same,half-life,"300 mg, C1D1, 300 mg QD, n=15, read-out: T1/2, Mean (SD) (converted)",10.8 h
same,half-life,"300 mg, C1D1, 300 mg QD, n=15, read-out: T1/2, Median (Min, max) (converted)",11.1 h
same,Tmax,"300 mg, C1D1, 300 mg QD, n=15",1 h
same,AUC(0-t),"300 mg, C1D15, 300 mg BID, n=12, read-out: AUC0-t, Geo-mean",18300 ng·h/mL
same,AUC(0-t),"300 mg, C1D15, 300 mg BID, n=12, read-out: AUC0-t, Mean (SD)",19100 ng·h/mL
same,AUC(0-t),"300 mg, C1D15, 300 mg BID, n=12, read-out: AUC0-t, Median (Min, max)",17400 ng·h/mL
same,Cmax,"300 mg, C1D15, 300 mg BID, n=17, read-out: Cmax, Geo-mean",2800 ng/mL
same,Cmax,"300 mg, C1D15, 300 mg BID, n=17, read-out: Cmax, Mean (SD)",2860 ng/mL
same,Cmax,"300 mg, C1D15, 300 mg BID, n=17, read-out: Cmax, Median (Min, max)",2880 ng/mL
same,Tmax,"300 mg, C1D15, 300 mg BID, n=17",0.567 h
same,AUC(0-t),"300 mg, C1D15, 300 mg QD, n=13, read-out: AUC0-t, Geo-mean",26500 ng·h/mL
same,AUC(0-t),"300 mg, C1D15, 300 mg QD, n=13, read-out: AUC0-t, Mean (SD)",30500 ng·h/mL
same,AUC(0-t),"300 mg, C1D15, 300 mg QD, n=13, read-out: AUC0-t, Median (Min, max)",27900 ng·h/mL
same,Cmax,"300 mg, C1D15, 300 mg QD, n=14, read-out: Cmax, Geo-mean",3500 ng/mL
same,Cmax,"300 mg, C1D15, 300 mg QD, n=14, read-out: Cmax, Mean (SD)",3860 ng/mL
same,Cmax,"300 mg, C1D15, 300 mg QD, n=14, read-out: Cmax, Median (Min, max)",3310 ng/mL
same,concentration at 15 day,"300 mg, C1D15, 300 mg QD, n=14, read-out: Cmin, Median (Min, max)",326 ng/mL
same,Tmax,"300 mg, C1D15, 300 mg QD, n=14",1 h
same,AUC(0-t),"400 mg, C1D1, 400 mg BID, n=5, read-out: AUC0-t, Geo-mean",16800 ng·h/mL
same,AUC(0-t),"400 mg, C1D1, 400 mg BID, n=5, read-out: AUC0-t, Mean (SD)",18100 ng·h/mL
same,AUC(0-t),"400 mg, C1D1, 400 mg BID, n=5, read-out: AUC0-t, Median (Min, max)",18200 ng·h/mL
same,AUC(0-inf),"400 mg, C1D1, 400 mg BID, n=5, read-out: AUCinf, Geo-mean",28400 ng·h/mL
same,AUC(0-inf),"400 mg, C1D1, 400 mg BID, n=5, read-out: AUCinf, Mean (SD)",30400 ng·h/mL
same,AUC(0-inf),"400 mg, C1D1, 400 mg BID, n=5, read-out: AUCinf, Median (Min, max)",31700 ng·h/mL
same,Cmax,"400 mg, C1D1, 400 mg BID, n=5, read-out: Cmax, Geo-mean",3730 ng/mL
same,Cmax,"400 mg, C1D1, 400 mg BID, n=5, read-out: Cmax, Mean (SD)",4350 ng/mL
same,Cmax,"400 mg, C1D1, 400 mg BID, n=5, read-out: Cmax, Median (Min, max)",3850 ng/mL
same,half-life,"400 mg, C1D1, 400 mg BID, n=5, read-out: T1/2, Geo-mean (converted)",13.5 h
same,half-life,"400 mg, C1D1, 400 mg BID, n=5, read-out: T1/2, Mean (SD) (converted)",13.8 h
same,half-life,"400 mg, C1D1, 400 mg BID, n=5, read-out: T1/2, Median (Min, max) (converted)",14.5 h
same,Tmax,"400 mg, C1D1, 400 mg BID, n=5",1.03 h
same,AUC(0-t),"400 mg, C1D15, 400 mg BID, n=4, read-out: AUC0-t, Geo-mean",15700 ng·h/mL
same,AUC(0-t),"400 mg, C1D15, 400 mg BID, n=4, read-out: AUC0-t, Mean (SD)",15900 ng·h/mL
same,AUC(0-t),"400 mg, C1D15, 400 mg BID, n=4, read-out: AUC0-t, Median (Min, max)",16000 ng·h/mL
same,Cmax,"400 mg, C1D15, 400 mg BID, n=4, read-out: Cmax, Geo-mean",2070 ng/mL
same,Cmax,"400 mg, C1D15, 400 mg BID, n=4, read-out: Cmax, Mean (SD)",2100 ng/mL
same,Cmax,"400 mg, C1D15, 400 mg BID, n=4, read-out: Cmax, Median (Min, max)",2060 ng/mL
same,Tmax,"400 mg, C1D15, 400 mg BID, n=4",0.842 h
same,AUC(0-t),"500 mg, C1D1, 500 mg QD, n=10, read-out: AUC0-t, Geo-mean",48000 ng·h/mL
same,AUC(0-t),"500 mg, C1D1, 500 mg QD, n=10, read-out: AUC0-t, Mean (SD)",50700 ng·h/mL

# From paper PMC10006169, “A phase I trial of LXS196, a protein kinase C (PKC) inhibitor, for metastatic uveal melanoma” (British Journal of Cancer, 2023)
